Data reported in ChEMBL document CHEMBL1177745, “Isolation, characterization, and bioactivity of cyclotides from the Micronesian plant Psychotria leptothyrsa” (J Nat Prod, 2010).

Test system: U-937/GTB
Assay: Cytotoxicity against human U937/GTB cells by fluorometric microculture cytotoxicity assay
Format: functional, cell-based

Row | Compound | IC50 [µM]
1 | CC[C@@H](C)[C@@H]1NC(=O)[C@@H]2CSSC[C@@H]3NC(=O)[C@H](C(C)C)NC(=O)[C@H](CCCCN)NC(=O)[C@H](CC(N)=O)NC(=O)[C@@H](CCCCN)NC(=O)[C@@H]4CSSC[C@H](NC(=O)[C@H](CO)NC(=O)[C@H](CCC(=O)O)NC(=O)CNC(=O)[C@H](CSSC[C@H](NC(=O)CNC(=O)[C@H](CC(C)C)NC(=O)[C@H](C(C)C)NC(=O)[C@H](CO)NC(=O)[C@H](CO)NC1=O)C(=O)N[C@@H](CO)C(=O)N4)NC(=O)[C@@H]1CCCN1C(=O)[C@H]([C@H](C)CC)NC(=O)[C@H](C(C)C)NC(=O)CNC(=O)[C@H](CC(=O)O)NC(=O)[C@H](CCCNC(=N)N)NC(=O)[C@H](Cc1ccc(O)cc1)NC3=O)C(=O)N[C@@H](C(C)C)C(=O)N[C@@H](Cc1ccccc1)C(=O)N[C@@H]([C@@H](C)CC)C(=O)N1CCC[C@H]1C(=O)N2 | 3.5
2 | CC[C@H](C)[C@@H]1NC(=O)CNC(=O)[C@@H](CC(N)=O)NC(=O)[C@H](Cc2ccccc2)NC(=O)[C@H](Cc2ccc(O)cc2)NC(=O)[C@@H]2CSSC[C@@H]3NC(=O)CNC(=O)[C@H](CC(C)C)NC(=O)[C@H](Cc4ccccc4)NC(=O)[C@H](C(C)C)NC(=O)[C@H]4CSSC[C@H](NC(=O)[C@H](CO)NC(=O)[C@H](CSSC[C@H](NC(=O)[C@H](C)NC1=O)C(=O)NCC(=O)N[C@@H](CCC(=O)O)C(=O)N[C@@H](CO)C(=O)N4)NC(=O)CNC(=O)[C@@H]1CCCN1C(=O)[C@H]([C@@H](C)CC)NC(=O)[C@H](Cc1ccccc1)NC3=O)C(=O)N[C@@H](CCCCN)C(=O)N[C@@H](CO)C(=O)N[C@@H](CCCCN)C(=O)N[C@@H](C(C)C)C(=O)N2 [PSYLE A] | 26
